Assay results published in patent US4551534A, “Aralkyl or aryloxyalkyl 1,7-naphthyridine-3-carboxylic acid esters” (American Home Products Corporation, priority 1984, dated 1985).

Key:
[1] = test system: isolated paced intact rabbit atria; assay: Cardiac depressant (negative inotropic) effects in isolated paced intact rabbit atria; details: 3 Hz, 30° C., cumulative 10^-9 M to 10^-5 M
Protocol: (§1) The potential for detrimental cardiac depressant (negative inotropic) effects of the compounds of this invention was assessed in isolated paced intact rabbit atria. […] Muscles (N=5-9/compound) were stimulated at a frequency of 3 Hz with a WPI stimulator for a 60 minute equilibration period. Changes in isometric force were recorded as described for the aortic smooth muscle experiments,supra. […]

[2] = test system: spontaneously hypertensive rats; assay: Hypotensive in vivo effect: systolic blood pressure of spontaneously hypertensive rats; parameters: species or system rat; details: 50 mg/kg oral, group of 4 spontaneously hypertensive rats
Protocol: The hypotensive in vivo effect of the compounds of this invention was determined by measuring changes in the systolic blood pressure of spontaneously hypertensive rats with a Decker Caudal Plethysmograph. The compound being tested was administered to a group of 4 rats and their systolic pressure was determined prior to and at 1.5 and 4 hours after compound administration. Initial testing was done by oral administration of the compound at a dose of 50 mg/kg body weight. Results (mmHg) are expressed as decreases in systolic blood pressure.
(§2) The following examples illustrate the preparation of a representative number of compounds of this invention. After each example, the Ca^+2 antagonist activity of the compound is presented in terms of percent relaxation (P.R.) at 10^-5 M concentration unless indicated otherwise. Similarly, the antihypertensive activity is reported in terms of millimeters mercury (mmHg) blood pressure (B.P.) reduction at the stated time post 50 mg/kg oral dosing or other dosing as indicated.

[3] = test system: rabbit aortic smooth muscle; assay: Ca+2 antagonism: relaxation of KCl-depolarized rabbit aortic smooth muscle strips; details: Oryctolagus cuniculus, 20 min; 10^-5 M; 100 mM KCl contraction; mean of two experiments 20 minutes after addition; read-out: percent relaxation (P.R.)
Protocol: The composition of PSS was as follows (mM): NaCl 112, KCl 5, NaHCO3 25, KH2 PO4 1, MgSO4 1.2, CaCL2 2.5, dextrose 10. The lower end of each tissue strip was attached to a fixed post and the upper end to a Statham UC-4 transducer. Changes in force development were recorded on a Beckman Dynograph Polygraphic Recorder.
Following equilibration, the muscles were contracted in a depolarizing solution of PSS in which 100 mM KCl was substituted for an equimolar concentration of NaCl. Following attainment of steady-state isometric force (20 min.), the test compound was added to afford a final concentration of 1×10^-5 M. The inhibitory effect, expressed as percent relaxation, was determined from the mean of two experiments twenty minutes after the addition of the compound being tested.
as §2

[4] = test system: spontaneously hypertensive rats; assay: Hypotensive in vivo effect: systolic blood pressure of spontaneously hypertensive rats; parameters: species or system rat; details: 50 mg/kg oral
[5] = Cardiac depressant (negative inotropic) effects in isolated paced intact rabbit atria; details: isolated paced atria, 10^-5 M, read-out: inhibition (of developed isometric force) at the highest concentration
Protocol: as §1

Structure (SMILES)	IC25 (concentration which produces 25% inhibition of isometric force) [1]	blood pressure (B.P.) reduction at 1.5 hours [2]	blood pressure (B.P.) reduction at 4 hours [2]	inhibition at 10 µM [3]	blood pressure (B.P.) reduction at 24 hours [4]	inhibition at 10 µM [5]
COC(=O)C1=C(C)NC2=C(C(=O)CN(CC(O)COc3cccc(C)c3C)C2)C1c1ccccc1C (stereo not shown) [Example 1, 7-[3-(2,3-Dimethylphenoxy)-2-hydroxypropyl]-1,4,5,6,7,8-hexahydro-2-methyl-4-(2-methylphenyl)-5-oxo-1,7-naphthyridine-3-carboxylic acid methyl ester]	> 10 µM	-30 mmHg	-34 mmHg	91%	–	–
COC(=O)C1=C(C)NC2=C(C(=O)CN(CC(O)COc3cccc(C)c3C)C2)C1c1c(F)c(F)c(F)c(F)c1F (stereo not shown) [Example 2, 7-[3-(2,3-Dimethylphenoxy)-2-hydroxypropyl]-1,4,5,6,7,8-hexahydro-2-methyl-5-oxo-4-(pentafluorophenyl)-1,7-naphthyridine-3-carboxylic acid methyl ester]	5 µM	-56 mmHg	-86 mmHg	65%	-28 mmHg	–
COC(=O)C1=C(C)NC2=C(C(=O)CN(CC(O)COc3cccc(C)c3C)C2)C1c1c(F)c(F)cc(F)c1F (stereo not shown) [Example 3]	6 µM	-25 mmHg	-56 mmHg	63%	–	–
COC(=O)C1=C(C)NC2=C(C(=O)CN(CC(O)COc3cccc(C)c3C)C2)C1c1c(F)ccc(Cl)c1Cl (stereo not shown) [Example 4, 4-(2,3-Dichloro-6-fluorophenyl)-7-[3-(2,3-dimethylphenoxy)-2-hydroxypropyl]1,4,5,6,7,8-hexahydro-2-methyl-5-oxo-1,7-naphthyridine-3-carboxylic acid methyl ester]	> 10 µM	-56 mmHg	-72 mmHg	42%	–	–
COC(=O)C1=C(C)NC2=C(C(=O)CN(CC(O)COc3cccc(Cl)c3Cl)C2)C1c1ccccc1C (stereo not shown) [Example 5, 7-[3-(2,3-Dichlorophenoxy)-2-hydroxypropyl]-1,4,5,6,7,8-hexahydro-2-methyl-4-(2-methylphenyl)-5-oxo-1,7-naphthyridine-3-carboxylic acid methyl ester]	> 10 µM	-23 mmHg	-25 mmHg	62%	–	–
COC(=O)C1=C(C)NC2=C(C(=O)CN(CC(O)COc3ccccc3)C2)C1c1c(F)c(F)c(F)c(F)c1F (stereo not shown) [Example 6, 1,4,5,6,7,8-Hexahydro-2-methyl-5-oxo-4-(pentafluorophenyl)-7-(3-phenoxy-2-hydroxypropyl)-1,7-naphthyridine-3-carboxylic acid methyl ester]	4.5 µM	-54 mmHg	-80 mmHg	67%	–	–
COC(=O)C1=C(C)NC2=C(C(=O)CN(CC(O)COc3ccc(OC)cc3)C2)C1c1c(F)c(F)c(F)c(F)c1F (stereo not shown) [Example 7, 1,4,5,6,7,8-Hexahydro-7-[3-(4-methoxyphenoxy)-2-hydroxypropyl]-2-methyl-5-oxo-4-(pentafluorophenyl)-1,7-naphthyridine-3-carboxylic acid methyl ester]	5 µM	-31 mmHg	-56 mmHg	73%	–	–
COC(=O)C1=C(C)NC2=C(C(=O)CN(CC(O)COc3cccc(C)c3C)C2)C1c1cccc(Cl)c1Cl (stereo not shown) [Example 8, 4-(2,3-Dichlorophenyl)-7-[3-(2,3-dimethylphenoxy)-2-hydroxypropyl]-1,4,5,6,7,8-hexahydro-2-methyl-5-oxo-1,7-naphthyridine-3-carboxylic acid methyl ester]	7 µM	-16 mmHg	-41 mmHg	50%	–	–
COC(=O)C1=C(C)NC2=C(C(=O)CN(CCCOc3ccccc3)C2)C1c1c(F)c(F)c(F)c(F)c1F (stereo not shown) [Example 9, 1,4,5,6,7,8-Hexahydro-2-methyl-5-oxo-4-(pentafluorophenyl)-7-(3-phenoxypropyl)-1,7-naphthyridine-3-carboxylic acid methyl ester]	3.5 µM	-43 mmHg	-41 mmHg	61%	–	–
COC(=O)C1=C(C)NC2=C(C(=O)CN(CC(O)CCc3ccccc3)C2)C1c1c(F)c(F)c(F)c(F)c1F (stereo not shown) [Example 10, 1,4,5,6,7,8-Hexahydro-7-(2-hydroxy-4-phenylbutyl)-2-methyl-5-oxo-4-(pentafluorophenyl)-1,7-naphthyridine-3-carboxylic acid methyl ester]	3 µM	-41 mmHg	-51 mmHg	80.5%	–	–
COC(=O)C1=C(C)NC2=C(C(=O)CN(CC(O)c3ccccc3)C2)C1c1c(F)c(F)c(F)c(F)c1F (stereo not shown) [Example 11, 1,4,5,6,7,8-Hexahydro-7-(2-hydroxy-2-phenylethyl)-2-methyl-5-oxo-4-pentafluorophenyl-1,7-naphthyridine-3-carboxylic acid methyl ester]	–	-58 mmHg	-73 mmHg	66.5%	–	–
NCCCCCCNS(=O)(=O)c1cccc2c(Cl)cccc12 [Example W-7, reference compound]	–	–	–	–	–	< 20%
COc1ccc(CCN(C)CCCC(C#N)(c2ccc(OC)c(OC)c2)C(C)C)cc1OC (stereo not shown) [Verapamil, reference compound]	0.06 µM	–	–	–	–	–
CCOC(=O)C1=C(C)NC(C)=C(C(=O)OC)C1c1cccc(Cl)c1Cl (stereo not shown) [felodipine, reference compound]	0.8 µM	–	–	–	–	–
COC(=O)C1=C(C)NC(C)=C(C(=O)OC)C1c1ccccc1[N+](=O)[O-] [nifedipine, reference compound]	0.05 µM	–	–	–	–	–
CCOC(=O)C1=C(C)NC(C)=C(C(=O)OC)C1c1cccc([N+](=O)[O-])c1 (stereo not shown) [nitrendipine, reference compound]	0.35 µM	–	–	–	–	–
